Source: the supplement of paper PMC10307832

Columns and labels:
Experiment in all cases: relative viability (nuclei count vs DMSO), 5 days (fraction); higher = more cells survive
Selisistat + Linsitinib = compound: C1CC(C2=C(C1)C3=C(N2)C=CC(=C3)Cl)C(=O)N [Selisistat] + C[C@]1(O)C[C@@H](c2nc(-c3ccc4ccc(-c5ccccc5)nc4c3)c3c(N)nccn32)C1 [Linsitinib] (partner 1 µM)
Method in brief: (§1)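 For relative viability, nuclei counts in treated wells were divided by those in vehicle wells. Lung cancer cell lines had been pin-tool dosed in 1536-well plates the day after seeding and cultured for 5 days, then fixed and stained in one step (final 0.05% Triton X-100, 1% formaldehyde, 1 ug/ml Hoechst) and imaged at 4×. Doses were one drug alone or a fixed anchor-drug dose plus five library-drug doses (not always all listed) in √10 steps, and values are duplicate-plate medians.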

Serdemetan + Crizotinib = compound: c1ccc2c(CCNc3ccc(Nc4ccncc4)cc3)c[nH]c2c1 [Serdemetan] + C[C@@H](Oc1cc(-c2cnn(C3CCNCC3)c2)cnc1N)c1c(Cl)ccc(F)c1Cl [Crizotinib] (partner 1 µM)
Method in brief: as §1

Serdemetan + Pemetrexed = compound: c1ccc2c(CCNc3ccc(Nc4ccncc4)cc3)c[nH]c2c1 [Serdemetan] + Nc1nc2[nH]cc(CCc3ccc(C(=O)N[C@@H](CCC(=O)O)C(=O)O)cc3)c2c(=O)[nH]1 [Pemetrexed] (partner 0.2 µM)
Method in brief: as §1

Serdemetan + Olaparib = compound: c1ccc2c(CCNc3ccc(Nc4ccncc4)cc3)c[nH]c2c1 [Serdemetan] + O=C(c1cc(Cc2n[nH]c(=O)c3ccccc23)ccc1F)N1CCN(C(=O)C2CC2)CC1 [Olaparib] (partner 8 µM)
Method in brief: as §1

| Cell Line | relative viability (Selisistat + Linsitinib; first compound 0.4 µM) | relative viability (Selisistat + Linsitinib; first compound 1.265 µM) | relative viability (Selisistat + Linsitinib; first compound 4 µM) | relative viability (Selisistat + Linsitinib; first compound 12.65 µM) | relative viability (Selisistat + Linsitinib; first compound 40 µM) | relative viability (Serdemetan + Crizotinib; first compound 0.04 µM) | relative viability (Serdemetan + Crizotinib; first compound 0.1265 µM) | relative viability (Serdemetan + Crizotinib; first compound 0.4 µM) | relative viability (Serdemetan + Crizotinib; first compound 1.265 µM) | relative viability (Serdemetan + Crizotinib; first compound 4 µM) | relative viability (Serdemetan + Pemetrexed; first compound 0.04 µM) | relative viability (Serdemetan + Pemetrexed; first compound 0.1265 µM) | relative viability (Serdemetan + Pemetrexed; first compound 0.4 µM) | relative viability (Serdemetan + Pemetrexed; first compound 1.265 µM) | relative viability (Serdemetan + Pemetrexed; first compound 4 µM) | relative viability (Serdemetan + Olaparib; first compound 0.04 µM) | relative viability (Serdemetan + Olaparib; first compound 0.1265 µM) | relative viability (Serdemetan + Olaparib; first compound 0.4 µM) | relative viability (Serdemetan + Olaparib; first compound 1.265 µM) | relative viability (Serdemetan + Olaparib; first compound 4 µM) |
| --- | --- | --- | --- | --- | --- | --- | --- | --- | --- | --- | --- | --- | --- | --- | --- | --- | --- | --- | --- | --- |
| NCI-H1975 | 0.849 | 0.805 | 0.871 | 0.831 | 0.813 | 0.91 | 0.934 | 0.937 | 0.804 | 0.99 | 0.279 | 0.3 | 0.312 | 0.309 | 0.295 | 0.843 | 0.754 | 0.742 | 0.748 | 0.75 |
| CAL-12T | 0.85 | 0.799 | 0.82 | 0.784 | 0.862 | 0.63 | 0.705 | 0.608 |  | 0.74 | 1.17 | 1.19 | 0.951 | 1.19 | 1.05 | 0.777 | 0.713 | 0.576 | 0.742 | 0.67 |
| HCC-44 | 0.707 | 0.698 | 0.669 | 0.662 | 0.753 | 0.766 | 0.828 | 0.71 | 0.54 | 0.599 | 0.62 | 0.621 | 0.577 | 0.574 | 0.644 | 0.94 | 0.943 | 0.979 | 0.851 | 0.815 |
| EKVX | 1.14 | 0.982 | 0.983 | 0.914 | 0.939 | 0.899 | 0.894 | 0.913 | 0.897 | 0.98 | 0.335 | 0.401 |  |  | 0.376 | 0.852 | 0.851 |  |  | 0.66 |
| NCI-H1651 | 0.936 | 0.898 | 1.02 | 1.05 | 0.849 | 0.82 | 0.79 | 0.793 | 0.462 | 0.356 | 0.582 | 0.388 | 0.505 | 0.443 | 0.323 | 0.179 | 0.165 | 0.159 | 0.131 | 0.141 |
| NCI-H1944 | 1.15 | 1.17 |  | 1.21 | 1.18 | 0.973 | 1.02 | 0.904 |  | 0.419 | 0.581 | 0.599 | 0.741 | 0.469 | 0.476 | 0.385 | 0.393 | 0.286 | 0.228 | 0.288 |
| NCI-H1703 | 0.316 | 0.703 | 0.627 | 0.724 | 0.932 | 0.665 | 0.872 | 0.815 | 0.73 | 0.217 |  |  |  |  |  | 0.427 | 0.397 | 0.415 | 0.386 | 0.333 |
| Calu-6 | 0.932 | 0.964 | 0.981 | 0.975 | 0.939 | 0.832 | 0.718 | 0.712 | 0.566 | 0.527 |  |  |  |  |  | 0.561 | 0.612 | 0.555 | 0.412 | 0.362 |
| EBC-1 | 0.92 | 0.899 | 0.892 | 0.8 | 0.844 | 0.19 | 0.214 | 0.188 | 0.19 | 0.181 |  |  |  |  |  | 0.694 | 0.669 | 0.703 | 0.594 | 0.547 |
